Read-outs that look alike come from different tables or passages of the source.

One test has as its system NADPH oxidase. Description: NBT assay (reduction of NBT to formazan). In kind it is biochemical, ragweed (Ambrosia artemisiifolia). The protocol: NBT Assay. […]. Mixtures were then incubated for 15 min at 37° C., and the sedimented formazan was dissolved in methanol. The absorbance was determined at 530 nm in a spectrophotometer (DU 530, Beckman Instruments, Fullerton, Calif.).

Test [1] deals with normal human bronchial epithelial (NHBE) cells. Description: Intracellular ROS (H2DCF-DA) in cultured NHBE cells. Format: cell-based. The settings on record: quinacrine 500 μM, diphenylene iodonium 100 μM, FIG. 2A. The protocol: Cell Lines. Cells were obtained from the ATCC (A549, NCI-H292 and MDCK), or Cambrex Bio Science (Walkersville, Md.) (NHBE). Cells were maintained in humidified CO2 (5%) incubator and medium as recommended by the suppliers.
Measurements of Reactive Oxygen Species. Epithelial cells (A549, NCI-H292, NHBE, and MDCK) were “loaded” with 50 μM H2DCF-DA (Molecular Probes, Eugene, Oreg.) at 37° C. for 15 minutes. After washing out excess probe, cells were treated with various allergenic extracts with or without NADPH (100 μM), NAC (1 mM), or NADPH oxidase inhibitors: quinacrine (500 μM) and diphenylene iodonium (100 μM). The change in fluorescence intensity was assessed in a FLx800 micro plate reader (Bio-Tek Instruments, Winooski, Vt.), or by flow cytometry (FACScan, Becton Dickinson, Franklin Lakes, N.J.) at 488 nm excitation and 530 nm emission. Each data point represents the mean fluorescence from three or more independent experiments, and is expressed ±s.e.m.

Test [2] relates to lung-(NCI-H292) and kidney-(MDCK) derived epithelial cells. Description: Intracellular ROS (H2DCF-DA) in other epithelial cells. Format: cell-based. The settings on record: pre-treatment of epithelial cells, NAC 1 mM, FIG. 2B. The protocol: Cell Lines. Cells were obtained from the ATCC (A549, NCI-H292 and MDCK), or Cambrex Bio Science (Walkersville, Md.) (NHBE). Cells were maintained in humidified CO2 (5%) incubator and medium as recommended by the suppliers. Measurements of Reactive Oxygen Species. Epithelial cells (A549, NCI-H292, NHBE, and MDCK) were “loaded” with 50 μM H2DCF-DA (Molecular Probes, Eugene, Oreg.) at 37° C. for 15 minutes. After washing out excess probe, cells were treated with various allergenic extracts with or without NADPH (100 μM), NAC (1 mM), or NADPH oxidase inhibitors: quinacrine (500 μM) and diphenylene iodonium (100 μM). The change in fluorescence intensity was assessed in a FLx800 micro plate reader (Bio-Tek Instruments, Winooski, Vt.), or by flow cytometry (FACScan, Becton Dickinson, Franklin Lakes, N.J.) at 488 nm excitation and 530 nm emission. Each data point represents the mean fluorescence from three or more independent experiments, and is expressed ±s.e.m.

In test [3] the test system is superoxide anions (O2.^−). Description: Cytochrome c assay for detecting O2.− generation. In kind it is biochemical, ragweed (Ambrosia artemisiifolia). The settings on record: SOD 50 U/ml added to pRWE^NOX+NADPH+Cyt c. On the procedure: Cytochrome c Assay for Detecting O2.^− Generation. The method described by Messner and Imaly was used. The assay was carried out in PBS with 10 μg pRWE and 10 μM oxidized cytochrome c (Sigma-Aldrich) in the reaction mixture. The reactions were started by adding 100 μM NADPH, and the increase in A550 nm was recorded for 5 min. Saturating amounts of SOD 9(50 U/ml, Sigma-Aldrich) were used in a reference reaction to determine any such O2.^− independent reduction of cytochrome c by the sample.

`c1ccc2c(c1)[I+]c1ccccc1-2` [diphenyleneiodonium]: the “NBT reducing activity of pRWE^NOX in presence of the agent” value (from here on “NBT reducing activity of pRWE^NOX”) in the test with NADPH oxidase (pRWE^NOX, FIG. 1A) is listed as “inhibited”. Moreover, the “effect on extract-induced elevation in ROS levels” value in test [1] is listed as “inhibited”.

Regarding `CC(=O)N[C@@H](CS)C(=O)O` [N-acetyl-L-cysteine], the “effect on RWE-induced increase in intracellular ROS levels” value in test [2] is listed as “inhibited”; in test [2] (listed as NAC) it was “inhibits”.

Consider `CCN(CC)CCCC(C)Nc1c2ccc(Cl)cc2nc2ccc(OC)cc12` (centres unmarked) [quinacrine], for which the “NBT reducing activity of pRWE^NOX” value in the test with NADPH oxidase (pRWE^NOX, FIG. 1A) is on record as “inhibited”. In addition, in test [1], the “effect on extract-induced elevation in ROS levels” value is on record as “inhibited”.

For the compound superoxide dismutase, the “effect on the pRWE^NOX-induced increase in absorbance at 550 nm” value in test [3] was “abrogated”. Take `[N-]=[N+]=[N-].[Na+]` [azide, sodium azide]: in the test with NADPH oxidase, the “NBT reducing activity of pRWE^NOX” value is recorded as “resistant”.

The values above are taken from patent US20060198904A1, “Methods for inhibiting allergic inflammation and other responses initiated by pollens, molds, and other non-animal derived allergens” (priority 2002, published 2006).
